Reference: paper PMC5917001, “Counter-ion effect on antistaphylococcal activity and cytotoxicity of selected antimicrobial peptides” (Amino Acids, 2018)
Where no end group is shown, it is not given here.

Columns and labels:
[1] = system: S. aureus (29): reference (5) and clinical (24) strains; settings: for Mean value of MIC: mean over 29 S. aureus strains (Table 5); for Mean MIC values: mean over 29 S. aureus strains, as repeated in Table 6
Description: Microbiological assays were performed using reference and clinical strains of Staphylococcus aureus. Minimal inhibitory concentrations (MIC) were determined by broth microdilution method on 96-well polystyrene plates according to Clinical and Laboratory Standards Institute (CLSI) recommendations [Clinical and Laboratory Standards Institute (CLSI) [2012]]. […] All plates were incubated for 18 h at 37 °C. […] Reference strains of S. aureus: ATCC 6538, ATCC 6538/P, ATCC 9144, ATCC 12598, and ATCC 25923 were obtained from the Polish Collection of Microorganisms (PCM, Polish Academy of Sciences, Wrocław), whereas 24 clinical strains were isolated from the patients of the Clinic of Dermatology, Venereology and Allergology (Medical University of Gdańsk). Nine strains were characterized as methicillin-resistant (MRSA). Preliminary identification and detection was conducted on the ChromID MRSA/ChromID S. aureus biplate (bioMérieux) for the simultaneous detection of S. aureus and methicillin-resistant S. aureus (MRSA). All experiments were conducted at least in triplicate.
To asses an overall activity of peptides, the mean MIC values were calculated.

[2] = system: S. aureus 033N; assay type: cell-based, Staphylococcus aureus; settings: clinical strain, broth microdilution, 0.5 × 10^5 CFU/mL, 18 h, 37 °C, at least triplicate
Description: (§1) Microbiological assays were performed using reference and clinical strains of Staphylococcus aureus. Minimal inhibitory concentrations (MIC) were determined by broth microdilution method on 96-well polystyrene plates according to Clinical and Laboratory Standards Institute (CLSI) recommendations [Clinical and Laboratory Standards Institute (CLSI) [2012]]. For this purpose, the initial inoculums of 0.5 × 10^5 CFU/mL of bacteria were exposed to a range of concentrations of the peptides (0.5–256 µg/mL). All plates were incubated for 18 h at 37 °C. MIC was taken as the lowest concentration of the compound at which the growth of bacteria was not observed. Reference strains of S. aureus: ATCC 6538, ATCC 6538/P, ATCC 9144, ATCC 12598, and ATCC 25923 were obtained from the Polish Collection of Microorganisms (PCM, Polish Academy of Sciences, Wrocław), whereas 24 clinical strains were isolated from the patients of the Clinic of Dermatology, Venereology and Allergology (Medical University of Gdańsk). Nine strains were characterized as methicillin-resistant (MRSA). Preliminary identification and detection was conducted on the ChromID MRSA/ChromID S. aureus biplate (bioMérieux) for the simultaneous detection of S. aureus and methicillin-resistant S. aureus (MRSA). All experiments were conducted at least in triplicate.

[3] = system: S. aureus 017S (MRSA); assay type: cell-based, Staphylococcus aureus; settings: clinical strain, broth microdilution, 0.5 × 10^5 CFU/mL, 18 h, 37 °C, at least triplicate
Description: as §1

[4] = system: S. aureus ATCC 12598; assay type: cell-based, Staphylococcus aureus; settings: ATCC 12598, reference strain; broth microdilution, 0.5 × 10^5 CFU/mL, 18 h, 37 °C, at least triplicate
Description: as §1

[5] = system: S. aureus 030N; assay type: cell-based, Staphylococcus aureus; settings: clinical strain, broth microdilution, 0.5 × 10^5 CFU/mL, 18 h, 37 °C, at least triplicate
Description: as §1

[6] = system: S. aureus 002N; assay type: cell-based, Staphylococcus aureus; settings: clinical strain, broth microdilution, 0.5 × 10^5 CFU/mL, 18 h, 37 °C, at least triplicate
Description: as §1

[7] = system: S. aureus 017N (MRSA); assay type: cell-based, Staphylococcus aureus; settings: clinical strain, broth microdilution, 0.5 × 10^5 CFU/mL, 18 h, 37 °C, at least triplicate
Description: as §1

[8] = system: S. aureus 043SC (MRSA); assay type: cell-based, Staphylococcus aureus; settings: clinical strain, broth microdilution, 0.5 × 10^5 CFU/mL, 18 h, 37 °C, at least triplicate
Description: as §1

[9] = system: S. aureus 005S; assay type: cell-based, Staphylococcus aureus; settings: clinical strain, broth microdilution, 0.5 × 10^5 CFU/mL, 18 h, 37 °C, at least triplicate
Description: as §1

[10] = system: S. aureus ATCC 25923; assay type: cell-based, Staphylococcus aureus; settings: ATCC 25923, reference strain; broth microdilution, 0.5 × 10^5 CFU/mL, 18 h, 37 °C, at least triplicate
Description: as §1

[11] = system: S. aureus 051S; assay type: cell-based, Staphylococcus aureus; settings: clinical strain, broth microdilution, 0.5 × 10^5 CFU/mL, 18 h, 37 °C, at least triplicate
Description: as §1

[12] = system: S. aureus K46N; assay type: cell-based, Staphylococcus aureus; settings: clinical strain, broth microdilution, 0.5 × 10^5 CFU/mL, 18 h, 37 °C, at least triplicate
Description: as §1

[13] = system: S. aureus 002S; assay type: cell-based, Staphylococcus aureus; settings: clinical strain, broth microdilution, 0.5 × 10^5 CFU/mL, 18 h, 37 °C, at least triplicate
Description: as §1

[14] = system: S. aureus ATCC 6538/P; assay type: cell-based, Staphylococcus aureus; settings: reference strain, broth microdilution, 0.5 × 10^5 CFU/mL, 18 h, 37 °C, at least triplicate
Description: as §1

[15] = system: S. aureus ATCC 9144; assay type: cell-based, Staphylococcus aureus; settings: ATCC 9144, reference strain; broth microdilution, 0.5 × 10^5 CFU/mL, 18 h, 37 °C, at least triplicate
Description: as §1

[16] = system: S. aureus 013S; assay type: cell-based, Staphylococcus aureus; settings: clinical strain, broth microdilution, 0.5 × 10^5 CFU/mL, 18 h, 37 °C, at least triplicate
Description: as §1

[17] = system: S. aureus 051N (MRSA); assay type: cell-based, Staphylococcus aureus; settings: clinical strain, broth microdilution, 0.5 × 10^5 CFU/mL, 18 h, 37 °C, at least triplicate
Description: as §1

[18] = system: S. aureus 060S; assay type: cell-based, Staphylococcus aureus; settings: clinical strain, broth microdilution, 0.5 × 10^5 CFU/mL, 18 h, 37 °C, at least triplicate
Description: as §1

[19] = system: S. aureus 001S (MRSA); assay type: cell-based, Staphylococcus aureus; settings: clinical strain, broth microdilution, 0.5 × 10^5 CFU/mL, 18 h, 37 °C, at least triplicate
Description: as §1

[20] = system: S. aureus 048S; assay type: cell-based, Staphylococcus aureus; settings: clinical strain, broth microdilution, 0.5 × 10^5 CFU/mL, 18 h, 37 °C, at least triplicate
Description: as §1

[21] = system: S. aureus K19N; assay type: cell-based, Staphylococcus aureus; settings: clinical strain, broth microdilution, 0.5 × 10^5 CFU/mL, 18 h, 37 °C, at least triplicate
Description: as §1

[22] = system: S. aureus K50S; assay type: cell-based, Staphylococcus aureus; settings: clinical strain, broth microdilution, 0.5 × 10^5 CFU/mL, 18 h, 37 °C, at least triplicate
Description: as §1

[23] = system: S. aureus 015N (MRSA); assay type: cell-based, Staphylococcus aureus; settings: clinical strain, broth microdilution, 0.5 × 10^5 CFU/mL, 18 h, 37 °C, at least triplicate
Description: as §1

[24] = system: S. aureus 001N (MRSA); assay type: cell-based, Staphylococcus aureus; settings: clinical strain, broth microdilution, 0.5 × 10^5 CFU/mL, 18 h, 37 °C, at least triplicate
Description: as §1

[25] = system: S. aureus 045N; assay type: cell-based, Staphylococcus aureus; settings: clinical strain, broth microdilution, 0.5 × 10^5 CFU/mL, 18 h, 37 °C, at least triplicate
Description: as §1

[26] = system: S. aureus 004N (MRSA); assay type: cell-based, Staphylococcus aureus; settings: clinical strain, broth microdilution, 0.5 × 10^5 CFU/mL, 18 h, 37 °C, at least triplicate
Description: as §1

[27] = system: S. aureus ATCC 6538; assay type: cell-based, Staphylococcus aureus; settings: ATCC 6538, reference strain; broth microdilution, 0.5 × 10^5 CFU/mL, 18 h, 37 °C, at least triplicate
Description: as §1

[28] = system: S. aureus 024N (MRSA); assay type: cell-based, Staphylococcus aureus; settings: clinical strain, broth microdilution, 0.5 × 10^5 CFU/mL, 18 h, 37 °C, at least triplicate
Description: as §1

[29] = system: S. aureus 039N; assay type: cell-based, Staphylococcus aureus; settings: clinical strain, broth microdilution, 0.5 × 10^5 CFU/mL, 18 h, 37 °C, at least triplicate
Description: as §1

[30] = system: S. aureus 053N; assay type: cell-based, Staphylococcus aureus; settings: clinical strain, broth microdilution, 0.5 × 10^5 CFU/mL, 18 h, 37 °C, at least triplicate
Description: as §1

Substance	Mean value of MIC [1] [µg/mL]	Mean MIC values [1] [µg/mL]	MIC [2] [µg/mL]	MIC [3] [µg/mL]	MIC [4] [µg/mL]	MIC [5] [µg/mL]	MIC [6] [µg/mL]	MIC [7] [µg/mL]	MIC [8] [µg/mL]	MIC [9]	MIC [10] [µg/mL]	MIC [11] [µg/mL]	MIC [12] [µg/mL]	MIC [13] [µg/mL]	MIC [14] [µg/mL]	MIC [15] [µg/mL]	MIC [16]	MIC [17] [µg/mL]	MIC [18] [µg/mL]	MIC [19] [µg/mL]	further results
GLFDVIKKVASVIGGL-NH2 [Citropin 1.1]	–	–	–	–	–	–	–	–	–	–	–	–	–	–	–	–	–	–	–	–	MIC range among strains ([1]; range over all S. aureus strains and the salts of the peptide): 1 to 32 µg/mL
GLFDVIKKVASVIGGL-NH2 [Citropin 1.1 TFA^−]	13.0	13.0	16	4	16	16	16	8	8	2 µg/mL	32	4	16	16	16	32	2 µg/mL	8	2	16	MIC [20]: 16 µg/mL; MIC [21]: 16 µg/mL; MIC [22]: 2 µg/mL; MIC [23]: 16 µg/mL; MIC [24]: 16 µg/mL; MIC [25]: 16 µg/mL; MIC [26]: 16 µg/mL; MIC [27]: 16 µg/mL; MIC [28]: 2 µg/mL; MIC [29]: 16 µg/mL; MIC [30]: 16 µg/mL
KWKLFKKIGAVLKVL-NH2 [CAMEL TFA^−]	≤ 3.5	≤ 3.5	4	2	4	4	4	4	4	≤ (≤ alone stands for MIC ≤ 0.25 µg/mL)	8	2	4	4	4	8	≤ (≤ alone stands for MIC ≤ 0.25 µg/mL)	4	2	4	MIC [20]: 4 µg/mL; MIC [21]: 4 µg/mL; MIC [22]: 1 µg/mL; MIC [23]: 4 µg/mL; MIC [24]: 4 µg/mL; MIC [25]: 4 µg/mL; MIC [26]: 4 µg/mL; MIC [27]: 2 µg/mL; MIC [28]: ≤ (≤ alone stands for MIC ≤ 0.25 µg/mL); MIC [29]: 4 µg/mL; MIC [30]: 4 µg/mL
GIGKFLKKAKKFGKAFVKILKK-NH2 [Pexiganan TFA^−]	8.4	–	–	–	–	–	–	–	–	–	–	–	–	–	–	–	–	–	–	–	–
FLPLIGRVLSGIL-NH2 [Temporin A AcO^−]	4.2	–	–	–	–	–	–	–	–	–	–	–	–	–	–	–	–	–	–	–	–
